In ChEMBL document CHEMBL1275380, “Studies toward the structural optimization of novel thiazolylhydrazone-based potent antitrypanosomal agents” (Bioorg Med Chem, 2010):
Blank lines part the entries; values can stand above or below the compound they belong to. Calls of active or inactive are those of the source. The calls are words filed in the database; no cut-off is given here.

How the values were obtained:
Trypanosoma cruzi [1] = assay: Antitrypanosomal activity against trypomastigotes of Trypanosoma cruzi Y assessed as viability after 24 hrs by trypan blue exclusion assay; format: functional, organism-based
Trypanosoma cruzi [2] = assay: Antitrypanosomal activity against epimastigotes of Trypanosoma cruzi Y assessed as viability at 40 uM after 11 days by trypan blue exclusion assay; format: functional; details: 264 h
[3] = target: Cruzipain (Trypanosoma cruzi) (UniProt P25779); assay: Inhibition of Trypanosoma cruzi cruzaine in absence of 0.01% Triton X-100
Trypanosoma cruzi [4] = assay: Antitrypanosomal activity against epimastigotes of Trypanosoma cruzi Y assessed as viability after 11 days by trypan blue exclusion assay; format: functional, organism-based; details: 264 h
[5] = target: Cruzipain (Trypanosoma cruzi) (UniProt P25779); assay: Inhibition of Trypanosoma cruzi cruzaine at 100 uM pre-incubated for 10 mins
Mus musculus = assay: Toxicity in Swiss mouse assessed as mortality at 100 mg/kg, ip after 72 hrs; format: organism-based; set-up: dose 100 mg/kg, route intraperitoneal; details: in vivo
[6] = target: Cruzipain (Trypanosoma cruzi) (UniProt P25779); assay: Inhibition of Trypanosoma cruzi cruzaine in presence of 0.01% Triton X-100
[7] = Cytotoxicity against BALB/c mouse Splenocyte assessed as non-cytotoxic concentration after 24 hrs by [3H]-thymidine incorporation assay relative to control; format: cell-based; details: splenocytes, read-out: Activity
[8] = target: Cruzipain (Trypanosoma cruzi) (UniProt P25779); assay: Inhibition of Trypanosoma cruzi cruzaine without pre-incubation; details: TDE = time-dependent effect
Cruzipain = Cruzipain (Trypanosoma cruzi, UniProt P25779); assay: Inhibition of Trypanosoma cruzi cruzaine pre-incubated for 10 mins
Trypanosoma cruzi [9] = assay: Antitrypanosomal activity against epimastigotes of Trypanosoma cruzi Y assessed as viability at 40 uM after 7 days by trypan blue exclusion assay; format: functional; details: 168 h
Trypanosoma cruzi [10] = assay: Antitrypanosomal activity against epimastigotes of Trypanosoma cruzi Y assessed as viability at 40 uM after 15 hrs by trypan blue exclusion assay; format: functional

Cruzipain, sequence (P25779 whole entry): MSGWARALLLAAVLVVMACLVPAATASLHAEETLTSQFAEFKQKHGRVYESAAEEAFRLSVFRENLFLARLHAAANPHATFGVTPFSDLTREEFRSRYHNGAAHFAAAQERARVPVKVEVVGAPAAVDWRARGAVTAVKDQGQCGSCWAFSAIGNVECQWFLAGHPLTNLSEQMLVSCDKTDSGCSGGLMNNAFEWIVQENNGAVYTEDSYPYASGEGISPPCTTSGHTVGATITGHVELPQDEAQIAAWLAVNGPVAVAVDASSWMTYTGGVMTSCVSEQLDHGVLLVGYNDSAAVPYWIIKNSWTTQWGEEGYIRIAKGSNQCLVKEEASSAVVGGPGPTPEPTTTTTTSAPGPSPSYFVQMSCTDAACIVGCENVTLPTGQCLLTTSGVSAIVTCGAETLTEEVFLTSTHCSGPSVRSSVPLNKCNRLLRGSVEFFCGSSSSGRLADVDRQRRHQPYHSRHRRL
Cruzipain (Trypanosoma cruzi), sequence (P25779 123-467 limits assumed): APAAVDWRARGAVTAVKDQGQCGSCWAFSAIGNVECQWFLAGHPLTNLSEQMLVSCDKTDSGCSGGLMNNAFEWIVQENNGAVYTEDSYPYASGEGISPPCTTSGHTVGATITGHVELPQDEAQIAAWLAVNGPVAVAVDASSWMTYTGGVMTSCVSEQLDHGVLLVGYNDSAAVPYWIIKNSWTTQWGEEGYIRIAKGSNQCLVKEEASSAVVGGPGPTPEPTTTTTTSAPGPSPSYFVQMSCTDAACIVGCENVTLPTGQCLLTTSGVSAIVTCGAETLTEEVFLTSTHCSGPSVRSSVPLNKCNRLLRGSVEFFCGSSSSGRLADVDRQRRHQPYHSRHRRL

SMILES: NC(=S)N/N=C/CSc1ccccc1
IC50 (Trypanosoma cruzi [1]): 158 µM
inhibition at 40 µM (Trypanosoma cruzi [2]): 100%
inhibition [3]: Active
IC50 (Trypanosoma cruzi [4]): 13.4 µM
inhibition [5]: 28%
Activity (Mus musculus): Non-toxic
inhibition [6]: Active
MNTC at 24 h [7]: 5 µg/mL

SMILES: CC/C(=N\N=C(\N)S)c1cccc(Br)c1
inhibition [8]: tde
IC50 (Trypanosoma cruzi [1]): 11.1 µM
IC50 (Trypanosoma cruzi [4]): 15.4 µM
inhibition [5]: 92%

SMILES: CC1S/C(=N/N=C/CCSc2ccccc2)NC1=S (configuration not stated)
IC50 (Trypanosoma cruzi [1]): 2.3 µM
IC50 (Cruzipain): 60 nM
inhibition [3]: Active
IC50 (Trypanosoma cruzi [4]): 8.1 µM
inhibition at 40 µM (Trypanosoma cruzi [9]): 94%
inhibition [5]: 92%
Activity (Mus musculus): Toxic
inhibition [6]: Active
MNTC at 24 h [7]: 1 µg/mL

SMILES: Cc1ccc(SC/C=N/N=C2\NC(=S)C(C)S2)cc1 (configuration not stated)
IC50 (Trypanosoma cruzi [1]): 4.5 µM
inhibition [3]: Active
IC50 (Trypanosoma cruzi [4]): 6.1 µM
inhibition [5]: 6%
Activity (Mus musculus): Toxic
inhibition [6]: Active
MNTC at 24 h [7]: < 1 µg/mL

SMILES: NC(=S)N/N=C/CCc1ccccc1
IC50 (Trypanosoma cruzi [1]): 3.7 µM
inhibition [3]: Active
IC50 (Trypanosoma cruzi [4]): 3.7 µM
inhibition [6]: Active
MNTC at 24 h [7]: < 1 µg/mL

SMILES: CC/C(=N\NC(N)=S)c1cccc(Br)c1
MNTC at 24 h [7]: 1 µg/mL

SMILES: O=C(Cn1ccnc1[N+](=O)[O-])NCc1ccccc1 [BENZNIDAZOLE]
inhibition at 40 µM (Trypanosoma cruzi [2]): 97%
inhibition at 40 µM (Trypanosoma cruzi [10]): 43%
inhibition at 40 µM (Trypanosoma cruzi [9]): 85%
Activity (Mus musculus): Non-toxic
MNTC at 24 h [7]: 25 µg/mL

SMILES: CCC1S/C(=N/N=C/CSc2ccc(Br)cc2)NC1=O (configuration not stated)
inhibition at 40 µM (Trypanosoma cruzi [2]): 77%
inhibition [3]: Active
inhibition at 40 µM (Trypanosoma cruzi [10]): 0%
IC50 (Trypanosoma cruzi [4]): 26.9 µM
inhibition at 40 µM (Trypanosoma cruzi [9]): 61%
inhibition [5]: 38%
Activity (Mus musculus): Non-toxic
inhibition [6]: Active
MNTC at 24 h [7]: > 100 µg/mL

SMILES: NC(=S)N/N=C/C=C/c1ccccc1
IC50 (Trypanosoma cruzi [1]): 7.4 µM
inhibition at 40 µM (Trypanosoma cruzi [2]): 99%
inhibition [3]: Active
IC50 (Trypanosoma cruzi [4]): 7.3 µM
inhibition [5]: 35%
inhibition [6]: Active
MNTC at 24 h [7]: < 1 µg/mL

SMILES: Cc1ccc(SC/C=N/N=C2\NC(=O)C(C)S2)cc1 (configuration not stated)
IC50 (Trypanosoma cruzi [1]): 84.8 µM
IC50 (Cruzipain): 20400 nM
inhibition at 40 µM (Trypanosoma cruzi [2]): 97%
inhibition [3]: Active
inhibition at 40 µM (Trypanosoma cruzi [10]): 85%
IC50 (Trypanosoma cruzi [4]): 6.7 µM
inhibition at 40 µM (Trypanosoma cruzi [9]): 97%
inhibition [5]: 80%
Activity (Mus musculus): Non-toxic
inhibition [6]: Active
MNTC at 24 h [7]: > 100 µg/mL

SMILES: CC1S/C(=N/N=C/CCSc2ccccc2)NC1=O (configuration not stated)
IC50 (Trypanosoma cruzi [1]): 10 µM
IC50 (Cruzipain): 400 nM
inhibition at 40 µM (Trypanosoma cruzi [2]): 100%
inhibition [3]: Active
inhibition at 40 µM (Trypanosoma cruzi [10]): 75%
IC50 (Trypanosoma cruzi [4]): 2.9 µM
inhibition at 40 µM (Trypanosoma cruzi [9]): 100%
inhibition [5]: 93%
Activity (Mus musculus): Non-toxic
inhibition [6]: Active
MNTC at 24 h [7]: > 100 µg/mL

More lines, main results first:

IC50 (Trypanosoma cruzi [1]): 148 µM
inhibition [3]: Active
IC50 (Trypanosoma cruzi [4]): 62.9 µM
inhibition [5]: 31%
inhibition [6]: Active
SMILES: CCC1S/C(=N/N=C(\C)CSc2ccc(Cl)cc2)NC1=O (configuration not stated)
inhibition at 40 µM (Trypanosoma cruzi [2]): 24%
MNTC at 24 h [7]: > 100 µg/mL

IC50 (Trypanosoma cruzi [1]): 44.2 µM
inhibition [3]: Active
IC50 (Trypanosoma cruzi [4]): 167 µM
inhibition [5]: 5%
inhibition [6]: Active
SMILES: CC1S/C(=N/N=C/CSc2ccccc2)NC1=O (configuration not stated)
inhibition at 40 µM (Trypanosoma cruzi [2]): 4%
MNTC at 24 h [7]: > 100 µg/mL

IC50 (Trypanosoma cruzi [1]): 76.9 µM
inhibition [3]: Active
IC50 (Trypanosoma cruzi [4]): 45.1 µM
inhibition [5]: 22%
inhibition [6]: Active
SMILES: CCC1S/C(=N/N=C(\C)CSc2ccc(C)cc2)NC1=O (configuration not stated)
inhibition at 40 µM (Trypanosoma cruzi [2]): 40%
MNTC at 24 h [7]: > 100 µg/mL

IC50 (Trypanosoma cruzi [1]): 10.1 µM
inhibition [3]: Active
IC50 (Trypanosoma cruzi [4]): 2.3 µM
inhibition [5]: 8%
inhibition [6]: Active
SMILES: O=C1CS/C(=N/N=C/C=C/c2ccccc2)N1
MNTC at 24 h [7]: < 1 µg/mL

inhibition [3]: Active
IC50 (Trypanosoma cruzi [4]): 42.9 µM
inhibition [5]: 8%
inhibition [6]: Active
SMILES: O=C1CS/C(=N/N=C/CSc2ccc(Br)cc2)N1
inhibition at 40 µM (Trypanosoma cruzi [2]): 31.5%
MNTC at 24 h [7]: > 100 µg/mL

IC50 (Trypanosoma cruzi [1]): 54.6 µM
inhibition [3]: Active
IC50 (Trypanosoma cruzi [4]): 40.8 µM
inhibition [5]: 11%
inhibition [6]: Active
SMILES: CCC1S/C(=N/N=C(\C)CSc2ccc(S)cc2)NC1=O (configuration not stated)
inhibition at 40 µM (Trypanosoma cruzi [2]): 41%
MNTC at 24 h [7]: > 100 µg/mL

inhibition [8]: tde
IC50 (Trypanosoma cruzi [1]): 39.5 µM
IC50 (Cruzipain): 100 nM
IC50 (Trypanosoma cruzi [4]): 8.5 µM
inhibition [5]: 96%
SMILES: C/C(=N\N=C(\N)S)c1ccc(Cl)c(Cl)c1
MNTC at 24 h [7]: 1 µg/mL

IC50 (Trypanosoma cruzi [1]): 82.4 µM
inhibition [3]: Active
IC50 (Trypanosoma cruzi [4]): 43.9 µM
inhibition [5]: 11%
inhibition [6]: Active
SMILES: O=C1CS/C(=N/N=C/CSc2ccc(Cl)cc2)N1
inhibition at 40 µM (Trypanosoma cruzi [2]): 8%
MNTC at 24 h [7]: > 100 µg/mL

IC50 (Cruzipain): 200 nM
inhibition [3]: Active
IC50 (Trypanosoma cruzi [4]): 32.1 µM
inhibition [5]: 98%
inhibition [6]: Active
SMILES: CC1S/C(=N/N=C/CCSc2ccc(Cl)cc2)NC1=O (configuration not stated)
inhibition at 40 µM (Trypanosoma cruzi [2]): 10%
MNTC at 24 h [7]: > 100 µg/mL
